This experiment concerns microglial reaction in rat hippocampal lesion. Briefly: Microglial reaction in rat hippocampal lesion (stereotaxic AMPA injection, IB4 histochemistry). Type of experiment: in vivo. Conditions: for Density of reactive microcytes / Hippocampal microgliosis area: n=4, mean±S.E.M. The method, then: This model relies on the acute stereotaxic over-activation of rat glutamate hippocampal receptors that results in a neurodegenerative process characterized by a neuronal loss with astroglial and microglial reactions (cf. F. Bernal et al., Hippocampus 2000, vol. 10, pp. 296-304; F. Bernal et al., Exp. Neurol. 2000, vol. 161, pp. 686-95). In this neurodegenerative model rats were anaesthetized with equithesin (a mixture of chloral hydrate and pentobarbital sodium; 0.3 ml/100 g body weight, i.p.) and placed on a Kopf stereotaxic frame with the incisor bar set at −3.3 mm. Intracerebral injections aimed at the dorsal hippocampus were performed at 3.3 mm caudal to bregma, 2.2 mm lateral and 2.9 mm ventral from dura (cf. G. Paxinos et al., “The rat brain in stereotaxic coordinates”, Sydney: Academic Press 1986). A volume of 0.5 μl was injected over a period of 5 min.
Four different groups of rats received two injections in a 2-hour interval as follows: a) sham rats (n=4) received two injections of PBS; b) AMPA rats (α-amino-3-hydroxy-5-methylisoxazole-4-propionic acid) (n=4) received the first injection of 5.4 mM AMPA and the second of PBS; c) diazoxide rats (n=4) received two injections of 50 μM diazoxide; d) AMPA+diazo rats (n=4) received 5.4 mM AMPA+50 μM diazoxide in the first injection and 50 μM diazoxide in the second injection. All rats were sacrificed 24 hours after the lesion.
Rats were transcardially perfused with 300 ml of 0.1 M phosphate buffer (PB, pH 7.4) followed by 300 ml ice-cold fixative (flow rate 20 ml/min). The fixative consisted of 4% (w/v) paraformaldehyde in PB. Brains were removed, crioprotected with 15% (w/v) sucrose in PB and then, frozen with dry ice. Cryostat sections (12 μm) were obtained at the level of dorsal hippocampus (−3.3 mm to bregma). Isolectine B4 (IB4) histochemistry was performed to identify the microglial reaction (cf. C. A. Colton et al., J. Histochem. Cytochem. 1992, vol. 40, pp. 505-12).
Microgliosis area evaluation was performed on IB4 positive stained sections, which were analyzed using a computer-assisted image analysis system (OPTIMAS®, BioScan Inc., Washington, USA). IB4-stained reactive microcytes were counted at ×100 magnification using an ocular grid mounted on a transmission light microscope (Axiolab, Zeiss, Göttingen, Germany). One-way ANOVA was used to compare differences between groups, followed by the LSD post-hoc test. Results were expressed as mean±S.E.M. All analyses were performed with the computer program STATGRAPHICS (STSC Inc., Rockville, Md., USA).

[1] abbreviates: AMPA+diazo group: 5.4 mM AMPA+50 μM diazoxide in first injection, 50 μM diazoxide in second, 24 hours.
The mark [2] stands for this setting: substance alone injected into dorsal hippocampus (diazoxide: two injections of 50 μM; AMPA: 5.4 mM then PBS), 24 hours.
Where [3] appears, read: substance alone injected into dorsal hippocampus (diazoxide: two injections of 50 μM; AMPA: 5.4 mM then PBS), sacrificed 24 hours after the lesion.

Consider `CC1=NS(=O)(=O)c2cc(Cl)ccc2N1` [diazoxide], for which, under “AMPA+diazo group versus AMPA group, 24 hours”, the “Microgliosis area as % of the AMPA group” value came out at 37%. Besides, the “Density of reactive microcytes” value under setting [1] is listed as 603±56 cells/mm^2 and the “Density of reactive microcytes” value under setting [2] is 555±91 cells/mm^2. Also, the Hippocampal microgliosis area reads like this: under setting [1], 0.16±0.02 mm^2; under setting [3], 0.19±0.03 mm^2. Moreover, the “Effect on microglial activation (in words)” value (diazoxide-treated animals compared with AMPA-treated animals) was “reduces microglial activation to sham values”.
In the case of `Cc1onc(O)c1CC(N)C(=O)O` (stereo not drawn) [AMPA, α-amino-3-hydroxy-5-methylisoxazole-4-propionic acid], the “Density of reactive microcytes” value under setting [2] turned out to be 645±59 cells/mm^2. The molecule further gave a Hippocampal microgliosis area under setting [3] of 0.44±0.07 mm^2.

The values above are taken from patent US20070254871A1, “Compounds for the Treatment of Inflammation of the Central Nervous System” (Neurotec Pharma, S.L., priority 2004, published 2007).
